Source: a compilation of properties of binary mixtures (doi:10.1016/j.jct.2010.07.014)

Test: xn = mol fraction of the nth substance listed
Details: 101 kPa

CCCC[n+]1ccccc1.F[B-](F)(F)F + CCO
speed of sound [m/s]
Details | 303.15 K | 313.15 K | 323.15 K
x2 = 0.072 | 1575.2 | – | 1529.8
x2 = 0.147 | 1555.4 | 1532.9 | 1511.8
x2 = 0.2229 | – | 1520.8 | –
x2 = 0.3295 | 1514.6 | 1492.5 | 1470.4
x2 = 0.4136 | 1488.6 | 1466.5 | –
x2 = 0.5006 | 1454.7 | 1433.1 | 1409.4
x2 = 0.5789 | – | – | 1374.8
x2 = 0.7074 | 1345.6 | 1329.7 | 1306.2
x2 = 0.8052 | – | 1256.1 | 1233.5
x2 = 0.8999 | 1199.4 | 1175.8 | –
x2 = 0.948 | 1163.7 | 1135.3 | 1106.3

CCCC[n+]1ccccc1.F[B-](F)(F)F + CO
Details | speed of sound [m/s]
293.15 K, x2 = 0.1574 | 1589.5
293.15 K, x2 = 0.2119 | 1580.3
293.15 K, x2 = 0.3113 | 1561.6
293.15 K, x2 = 0.3856 | 1545.2
293.15 K, x2 = 0.6109 | 1473.1
293.15 K, x2 = 0.7044 | 1424.8
293.15 K, x2 = 0.8043 | 1353.2
293.15 K, x2 = 0.9023 | 1256.7
303.15 K, x2 = 0.1058 | 1582.7
303.15 K, x2 = 0.2119 | 1558.3
303.15 K, x2 = 0.3856 | 1522.7
303.15 K, x2 = 0.5052 | 1491.6
303.15 K, x2 = 0.6109 | 1450.8
303.15 K, x2 = 0.8043 | 1330.3
303.15 K, x2 = 0.9023 | 1234.7
313.15 K, x2 = 0.1058 | 1552.6
313.15 K, x2 = 0.1574 | 1544.6
313.15 K, x2 = 0.2119 | 1535.7
313.15 K, x2 = 0.3113 | 1516.7
313.15 K, x2 = 0.3856 | 1500.1
313.15 K, x2 = 0.6109 | 1427.1
313.15 K, x2 = 0.7044 | 1378.5
313.15 K, x2 = 0.9512 | 1140.1
323.15 K, x2 = 0.211 | 1512.7
323.15 K, x2 = 0.3066 | 1494.7
323.15 K, x2 = 0.4111 | 1470.5
323.15 K, x2 = 0.5203 | 1440.9
323.15 K, x2 = 0.703 | 1363
323.15 K, x2 = 0.8081 | 1281.6
323.15 K, x2 = 0.9038 | 1172.9
